According to the SangsterLogP compilation:
Where a SMILES comes first, the peptide text is derived from it. The star is where a group is joined. X1 = O=C(CCCCSc1ncnc2nc[nH]c12)*

assay: from Bachrata, M.; Bezakova, Z.; Pesák, M.; Blesova, M. (1983). Study of physicochemical properties of substances with cancerostatic effect. II. Study of lipo-hydrophilic parameters. Acta Fac. Pharm. …; settings: pH 7.0

**Q.** For CCOC(=O)CNC(=O)CNC(=O)CCCCSc1ncnc2nc[nH]c12, which logD is on record?
**A.** 0.5

**Q.** For c1ncc2[nH]cnc2n1, which logD is on record?
**A.** -0.21

**Q.** With CCOC(=O)[C@H](CC(C)C)NC(=O)CNC(=O)CNC(=O)CCCCSc1ncnc2nc[nH]c12 as the molecule, how does the logD read?
**A.** 1.07

**Q.** Which logD does the source give for CCOC(=O)CNC(=O)CNC(=O)CNC(=O)CNC(=O)CCCCSc1ncnc2nc[nH]c12 (X1-GGGG-OEt) here?
**A.** -0.23

**Q.** Which logD does the source give for CCOC(=O)C(C)NC(=O)CCCCSc1ncnc2nc[nH]c12 (configuration not stated) here?
**A.** 1.51

**Q.** For CCOC(=O)C(NC(=O)CCCCSc1ncnc2[nH]cnc12)C(C)C (racemic), which logD is on record?
**A.** 1.89

**Q.** For CCOC(=O)C(NC(=O)CCCCSc1ncnc2nc[nH]c12)c1ccccc1 (configuration not stated), which logD is on record?
**A.** 1.13

**Q.** Which logD does the source give for CCOC(=O)C[C@H](NC(=O)CCCCSc1ncnc2nc[nH]c12)C(=O)OCC here?
**A.** 1.33

**Q.** For CCOC(=O)CNC(=O)CCCCSc1ncnc2nc[nH]c12, which logD is on record?
**A.** 0.91

**Q.** For CCCCOC(=O)CNC(=O)CCCCSc1ncnc2nc[nH]c12, which logD is on record?
**A.** 1.39

**Q.** Which logD does the source give for CCCOC(=O)CNC(=O)CCCCSc1ncnc2nc[nH]c12 here?
**A.** 1.37

**Q.** Which logD does the source give for CCOC(=O)CNC(=O)CNC(=O)CNC(=O)CCCCSc1ncnc2nc[nH]c12 here?
**A.** 0.21
